The target in data set [1] is MAO-A (amine oxidase [flavin-containing] A) (Homo sapiens, UniProt P21397). Description: (§1) MAO-A_ANTAG Eurofins SafetyScreen44 (BI). The note with it: compound concentration 10 uM, read-out: % Ctrl. The arrangement: scale not given: the % may be the effect or the level left.
Data set [2] concerns the target Prostaglandin G/H synthase 1 (Homo sapiens) (UniProt P23219). Kind of data set: COX-1 Eurofins SafetyScreen44 (BI). The conditions noted are these: Compound concentration 10.0 uM.
The target of data set [3] is Histamine H4 receptor (Homo sapiens) (UniProt Q9H3N8). The conditions noted are these: Compound concentration 10.0 uM.
The target of data set [4] is GABA-A receptor; anion channel (Rattus norvegicus) (UniProt O09028+P15431+P18506+P18508+P19969+P20236+P23574+P23576+P28471+P28473+P30191+P62813+P63079+P63138+Q91ZM7+Q9ES14). The conditions noted are these: Compound concentration 10.0 uM.
Data set [5] concerns the target Kappa-type opioid receptor (Rattus norvegicus) (UniProt P34975). Kind of data set: KAPPA/R Eurofins SafetyScreen44 (BI). The conditions noted are these: Compound concentration 10.0 uM.
For data set [6], the target named is 5-hydroxytryptamine receptor 1B (Homo sapiens) (UniProt P28222). The note with it: Compound concentration 10.0 uM.
Sequence of 5-hydroxytryptamine receptor 1B (Homo sapiens) (P28222 whole entry): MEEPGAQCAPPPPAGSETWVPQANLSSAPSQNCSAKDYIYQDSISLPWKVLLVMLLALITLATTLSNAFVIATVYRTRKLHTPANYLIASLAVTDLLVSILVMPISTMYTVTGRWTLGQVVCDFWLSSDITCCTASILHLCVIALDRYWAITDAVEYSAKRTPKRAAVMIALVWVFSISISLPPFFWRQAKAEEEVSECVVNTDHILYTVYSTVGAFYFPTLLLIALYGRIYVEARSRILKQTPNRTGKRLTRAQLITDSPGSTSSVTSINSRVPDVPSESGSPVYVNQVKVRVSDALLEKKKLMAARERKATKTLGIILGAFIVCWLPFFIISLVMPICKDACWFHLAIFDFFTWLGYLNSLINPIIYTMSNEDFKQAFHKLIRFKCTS
The target of data set [7] is Prostaglandin G/H synthase 2 (Homo sapiens) (UniProt P35354). Description: COX2_HU Eurofins SafetyScreen44 (BI). The note with it: Compound concentration 10.0 uM.
In data set [8] the target is Histamine H1 receptor (Homo sapiens) (UniProt P35367). The note with it: Compound concentration 10.0 uM.
In data set [9] the target is Histamine H2 receptor (Homo sapiens) (UniProt P25021). The note with it: Compound concentration 10.0 uM.
Sequence of Histamine H2 receptor (Homo sapiens) (P25021 whole entry): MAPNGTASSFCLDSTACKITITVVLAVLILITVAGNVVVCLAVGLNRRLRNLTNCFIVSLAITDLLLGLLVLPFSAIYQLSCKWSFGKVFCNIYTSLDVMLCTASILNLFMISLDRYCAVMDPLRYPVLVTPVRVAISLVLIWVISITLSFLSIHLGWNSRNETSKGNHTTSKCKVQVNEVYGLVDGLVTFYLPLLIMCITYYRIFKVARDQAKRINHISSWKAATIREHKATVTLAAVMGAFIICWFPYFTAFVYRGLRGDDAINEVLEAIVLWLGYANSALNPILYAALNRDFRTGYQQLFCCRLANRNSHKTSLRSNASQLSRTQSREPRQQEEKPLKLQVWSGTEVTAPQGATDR
Data set [10] concerns the target 5-hydroxytryptamine receptor 5A (Homo sapiens) (UniProt P47898). The conditions noted are these: Compound concentration 10.0 uM.
For data set [11], the target named is Alpha-2B adrenergic receptor (Homo sapiens) (UniProt P18089). The note with it: Compound concentration 10.0 uM.
Sequence of Alpha-2B adrenergic receptor (Homo sapiens) (P18089 whole entry): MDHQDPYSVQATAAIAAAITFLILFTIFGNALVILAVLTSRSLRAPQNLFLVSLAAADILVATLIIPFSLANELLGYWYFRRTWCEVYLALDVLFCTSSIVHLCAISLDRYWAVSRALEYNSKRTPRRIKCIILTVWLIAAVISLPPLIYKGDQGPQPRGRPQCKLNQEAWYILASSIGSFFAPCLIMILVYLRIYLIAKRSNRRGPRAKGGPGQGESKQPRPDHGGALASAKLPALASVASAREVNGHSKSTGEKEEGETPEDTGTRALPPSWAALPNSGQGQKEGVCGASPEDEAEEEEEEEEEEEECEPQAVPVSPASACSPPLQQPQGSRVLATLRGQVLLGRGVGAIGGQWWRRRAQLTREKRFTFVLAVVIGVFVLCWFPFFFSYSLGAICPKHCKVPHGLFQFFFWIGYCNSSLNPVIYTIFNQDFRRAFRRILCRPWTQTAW
For data set [12], the target named is Beta-3 adrenergic receptor (Homo sapiens) (UniProt P13945). The conditions noted are these: Compound concentration 10.0 uM.
Sequence of Beta-3 adrenergic receptor (Homo sapiens) (P13945 whole entry, looked up): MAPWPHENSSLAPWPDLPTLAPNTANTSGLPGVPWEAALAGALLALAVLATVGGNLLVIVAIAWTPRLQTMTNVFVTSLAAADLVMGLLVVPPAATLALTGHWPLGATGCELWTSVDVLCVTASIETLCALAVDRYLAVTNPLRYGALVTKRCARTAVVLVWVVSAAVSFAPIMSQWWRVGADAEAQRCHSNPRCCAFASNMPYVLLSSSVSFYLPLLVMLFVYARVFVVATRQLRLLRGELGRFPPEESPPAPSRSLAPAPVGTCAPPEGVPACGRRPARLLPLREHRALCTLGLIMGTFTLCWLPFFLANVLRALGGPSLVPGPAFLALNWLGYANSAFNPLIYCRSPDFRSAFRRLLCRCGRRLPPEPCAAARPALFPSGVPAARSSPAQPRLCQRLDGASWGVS
In data set [13] the target is Muscarinic acetylcholine receptor M3 (Homo sapiens) (UniProt P20309). The note with it: Compound concentration 10.0 uM.
Sequence of Muscarinic acetylcholine receptor M3 (Homo sapiens) (P20309 whole entry, looked up): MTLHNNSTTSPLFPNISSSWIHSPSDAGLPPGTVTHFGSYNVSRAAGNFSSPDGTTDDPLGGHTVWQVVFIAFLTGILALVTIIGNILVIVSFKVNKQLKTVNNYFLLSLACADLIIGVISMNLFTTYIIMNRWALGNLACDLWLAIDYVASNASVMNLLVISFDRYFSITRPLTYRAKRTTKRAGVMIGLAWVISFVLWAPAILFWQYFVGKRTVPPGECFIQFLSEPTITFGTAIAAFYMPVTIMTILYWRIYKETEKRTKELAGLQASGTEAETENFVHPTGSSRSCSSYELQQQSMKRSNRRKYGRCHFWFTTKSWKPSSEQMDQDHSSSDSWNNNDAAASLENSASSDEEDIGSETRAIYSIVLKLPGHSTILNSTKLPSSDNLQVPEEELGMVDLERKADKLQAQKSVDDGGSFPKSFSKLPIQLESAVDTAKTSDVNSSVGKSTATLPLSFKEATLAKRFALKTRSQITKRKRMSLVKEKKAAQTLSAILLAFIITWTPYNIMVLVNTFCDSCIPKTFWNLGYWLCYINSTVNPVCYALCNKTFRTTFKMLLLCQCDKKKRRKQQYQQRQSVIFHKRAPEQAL
Data set [14] addresses Alpha-1D adrenergic receptor (Homo sapiens) (UniProt P25100). The note with it: Compound concentration 10.0 uM.
In the next data set the target is D(1B) dopamine receptor (Homo sapiens, UniProt P21918). Description: GPCRScan assay: inhibition of D5. More on the design: radioligand conc. used [nm] 2.0 – 3.0, parental cells HEKT.
Sequence of D(1B) dopamine receptor (P21918 whole entry): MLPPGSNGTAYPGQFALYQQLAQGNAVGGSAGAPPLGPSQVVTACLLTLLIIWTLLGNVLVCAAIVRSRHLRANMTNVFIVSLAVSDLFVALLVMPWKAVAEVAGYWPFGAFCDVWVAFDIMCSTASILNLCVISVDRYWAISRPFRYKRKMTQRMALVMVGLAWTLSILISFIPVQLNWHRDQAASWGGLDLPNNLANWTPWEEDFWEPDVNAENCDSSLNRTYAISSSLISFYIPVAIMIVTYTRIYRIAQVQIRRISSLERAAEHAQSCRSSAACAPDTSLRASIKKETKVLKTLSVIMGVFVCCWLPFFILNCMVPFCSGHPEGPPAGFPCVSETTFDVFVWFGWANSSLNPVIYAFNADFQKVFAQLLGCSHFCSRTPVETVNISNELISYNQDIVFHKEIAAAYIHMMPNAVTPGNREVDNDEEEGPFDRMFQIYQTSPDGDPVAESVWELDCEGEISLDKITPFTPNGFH
In data set [15] the target is MAO-A (amine oxidase [flavin-containing] A) (Rattus norvegicus, UniProt P21396). Described as §1. The arrangement: scale not given: the % may be the effect or the level left. The note with it: compound concentration 10 uM, read-out: % Ctrl.
In data set [16] the target is Alpha-2C adrenergic receptor (Homo sapiens) (UniProt P18825). The conditions noted are these: Compound concentration 10.0 uM.
Sequence of Alpha-2C adrenergic receptor (Homo sapiens) (P18825 whole entry): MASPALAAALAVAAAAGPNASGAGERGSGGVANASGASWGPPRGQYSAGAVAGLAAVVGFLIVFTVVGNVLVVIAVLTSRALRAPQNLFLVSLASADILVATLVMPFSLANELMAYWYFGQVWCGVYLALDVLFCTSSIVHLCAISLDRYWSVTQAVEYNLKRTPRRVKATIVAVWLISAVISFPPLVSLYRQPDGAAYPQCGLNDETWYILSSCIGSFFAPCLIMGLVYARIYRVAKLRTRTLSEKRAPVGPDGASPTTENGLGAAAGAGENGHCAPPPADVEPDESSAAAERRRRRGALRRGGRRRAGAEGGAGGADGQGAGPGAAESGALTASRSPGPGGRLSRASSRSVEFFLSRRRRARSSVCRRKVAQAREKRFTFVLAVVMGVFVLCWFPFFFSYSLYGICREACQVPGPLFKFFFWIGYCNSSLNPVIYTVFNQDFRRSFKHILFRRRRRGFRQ
Data set [17] addresses Amiloride-sensitive sodium channel, ENaC (Mus musculus) (UniProt Q61180+Q9WU38+Q9WU39). Description: Inhibition of M-1 water resorption. The conditions noted are these: M1, concentration not given here. Type of data set: functional, cell-based.
Data set [18] deals with Prostaglandin G/H synthase 1 (Homo sapiens) (UniProt P23219). Kind of data set: COX1_HU Eurofins SafetyScreen44 (BI). The conditions noted are these: Compound concentration 10.0 uM.
In data set [19] the target is Muscarinic acetylcholine receptor M5 (Homo sapiens) (UniProt P08912). The note with it: Compound concentration 10.0 uM.
For the next data set, the target named is Histamine H3 receptor (Homo sapiens, UniProt Q9Y5N1). The conditions noted are these: Compound concentration 10.0 uM.
In data set [20] the target is Beta-1 adrenergic receptor (Homo sapiens) (UniProt P08588). The note with it: Compound concentration 10.0 uM.
Data set [21] addresses T1, Muscarinic acetylcholine receptor M1 (Homo sapiens) (UniProt P11229).
T1 sequence (whole entry): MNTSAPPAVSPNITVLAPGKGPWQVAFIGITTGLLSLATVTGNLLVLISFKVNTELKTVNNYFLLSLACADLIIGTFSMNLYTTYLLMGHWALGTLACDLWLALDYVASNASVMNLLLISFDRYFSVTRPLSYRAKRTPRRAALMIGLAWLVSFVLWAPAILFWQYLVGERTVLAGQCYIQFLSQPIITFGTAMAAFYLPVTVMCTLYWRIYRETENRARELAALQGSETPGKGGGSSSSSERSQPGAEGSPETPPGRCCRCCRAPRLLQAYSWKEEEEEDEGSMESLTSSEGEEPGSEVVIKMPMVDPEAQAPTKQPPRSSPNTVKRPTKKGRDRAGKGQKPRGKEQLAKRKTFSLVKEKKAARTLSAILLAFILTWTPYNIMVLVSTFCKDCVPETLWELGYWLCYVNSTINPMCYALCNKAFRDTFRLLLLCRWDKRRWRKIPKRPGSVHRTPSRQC
The conditions noted are these: Compound concentration 10.0 uM.

For data set [22], the target named is T2, 5-hydroxytryptamine receptor 1A (Homo sapiens) (UniProt P08908).
T2 sequence (whole entry): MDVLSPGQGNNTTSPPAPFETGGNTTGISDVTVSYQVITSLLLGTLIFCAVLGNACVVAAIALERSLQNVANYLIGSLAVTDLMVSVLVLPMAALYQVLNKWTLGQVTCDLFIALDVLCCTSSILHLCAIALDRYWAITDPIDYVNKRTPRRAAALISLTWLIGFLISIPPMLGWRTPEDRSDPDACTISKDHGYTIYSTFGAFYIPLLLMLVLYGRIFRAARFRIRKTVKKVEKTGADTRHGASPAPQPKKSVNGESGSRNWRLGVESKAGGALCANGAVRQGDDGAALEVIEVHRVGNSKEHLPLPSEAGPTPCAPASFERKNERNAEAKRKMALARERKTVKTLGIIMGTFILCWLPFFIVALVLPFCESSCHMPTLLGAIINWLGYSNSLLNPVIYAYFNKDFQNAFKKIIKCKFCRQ
The note with it: Compound concentration 10.0 uM.

Data set [23] concerns the target 5-hydroxytryptamine receptor 7 (Homo sapiens) (UniProt P34969). The note with it: Compound concentration 10.0 uM.
Data set [24] concerns the target 5-hydroxytryptamine receptor 1D (Homo sapiens) (UniProt P28221). The note with it: Compound concentration 10.0 uM.
Data set [25] addresses Muscarinic acetylcholine receptor M3 (Homo sapiens) (UniProt P20309). Description: M3(H)AGON Eurofins SafetyScreen44 (BI). The note with it: filed as agonist, Compound concentration 10.0 uM.
Data set [26] deals with Alpha-1B adrenergic receptor (Homo sapiens) (UniProt P35368). The conditions noted are these: Compound concentration 10.0 uM.

Sequence of 5-hydroxytryptamine receptor 1D (Homo sapiens) (P28221 whole entry): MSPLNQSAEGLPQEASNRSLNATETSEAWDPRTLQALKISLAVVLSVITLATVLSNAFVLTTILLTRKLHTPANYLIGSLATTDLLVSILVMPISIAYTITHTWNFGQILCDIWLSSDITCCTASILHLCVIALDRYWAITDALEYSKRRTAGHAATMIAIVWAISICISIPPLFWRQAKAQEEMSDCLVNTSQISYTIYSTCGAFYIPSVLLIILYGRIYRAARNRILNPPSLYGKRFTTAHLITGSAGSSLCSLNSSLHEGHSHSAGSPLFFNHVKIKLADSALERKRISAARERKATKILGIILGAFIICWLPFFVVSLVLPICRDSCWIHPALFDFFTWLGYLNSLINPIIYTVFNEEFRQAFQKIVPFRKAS
Sequence of 5-hydroxytryptamine receptor 7 (Homo sapiens) (P34969 whole entry): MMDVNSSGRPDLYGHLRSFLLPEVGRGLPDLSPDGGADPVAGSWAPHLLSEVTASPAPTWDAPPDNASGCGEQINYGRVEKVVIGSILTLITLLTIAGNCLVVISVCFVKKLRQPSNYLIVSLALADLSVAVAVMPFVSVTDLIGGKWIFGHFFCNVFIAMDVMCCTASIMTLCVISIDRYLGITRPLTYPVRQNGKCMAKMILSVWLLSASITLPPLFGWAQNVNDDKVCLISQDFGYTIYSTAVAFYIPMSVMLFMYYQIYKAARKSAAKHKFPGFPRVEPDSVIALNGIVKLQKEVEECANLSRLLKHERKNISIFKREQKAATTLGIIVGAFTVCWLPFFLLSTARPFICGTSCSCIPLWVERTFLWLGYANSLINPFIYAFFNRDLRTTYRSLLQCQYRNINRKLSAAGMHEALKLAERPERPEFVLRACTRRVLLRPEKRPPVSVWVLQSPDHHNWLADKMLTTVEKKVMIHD
Sequence of Alpha-1D adrenergic receptor (Homo sapiens) (P25100 whole entry): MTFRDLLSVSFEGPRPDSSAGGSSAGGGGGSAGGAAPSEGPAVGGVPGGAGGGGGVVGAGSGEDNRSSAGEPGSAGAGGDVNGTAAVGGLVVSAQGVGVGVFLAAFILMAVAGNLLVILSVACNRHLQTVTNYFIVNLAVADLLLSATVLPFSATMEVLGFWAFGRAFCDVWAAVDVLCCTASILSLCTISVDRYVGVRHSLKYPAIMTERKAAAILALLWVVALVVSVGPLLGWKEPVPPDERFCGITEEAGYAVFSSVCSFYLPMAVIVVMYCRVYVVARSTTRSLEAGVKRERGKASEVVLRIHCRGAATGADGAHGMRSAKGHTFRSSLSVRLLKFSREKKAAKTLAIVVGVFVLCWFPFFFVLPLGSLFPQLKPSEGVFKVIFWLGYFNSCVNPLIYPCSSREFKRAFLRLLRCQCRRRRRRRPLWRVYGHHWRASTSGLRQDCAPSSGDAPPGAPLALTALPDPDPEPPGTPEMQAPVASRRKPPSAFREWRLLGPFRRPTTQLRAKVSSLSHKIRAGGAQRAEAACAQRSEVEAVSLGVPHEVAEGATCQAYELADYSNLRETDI
Sequence of 5-hydroxytryptamine receptor 5A (Homo sapiens) (P47898 whole entry): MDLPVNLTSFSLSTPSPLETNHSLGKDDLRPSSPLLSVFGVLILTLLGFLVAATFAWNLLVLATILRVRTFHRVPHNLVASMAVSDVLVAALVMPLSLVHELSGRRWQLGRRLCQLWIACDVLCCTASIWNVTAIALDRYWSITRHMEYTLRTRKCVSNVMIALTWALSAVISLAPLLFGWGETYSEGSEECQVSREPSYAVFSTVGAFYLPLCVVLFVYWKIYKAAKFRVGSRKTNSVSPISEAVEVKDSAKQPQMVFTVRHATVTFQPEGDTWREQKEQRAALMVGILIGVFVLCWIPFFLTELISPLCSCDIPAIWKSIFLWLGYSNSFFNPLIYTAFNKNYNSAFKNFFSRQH

Turning to `CCn1c(CNC(=O)c2ncc(C)nc2N)[n+](CC)c2ccc(C(=O)N(C)CN(C)C)cc21`, in data set [1], the activity at 10 µM was 95% (not active). The residual activity in data set [2] is 84%.

For `CCn1c(CNC(=O)c2nc(Cl)cnc2N)[n+](CC)c2ccc(C(=O)N(C)CCN(C)C)cc21`, the inhibition in data set [3] is -7.37%; in data set [4], 22.4%; in [6] it was 8.35%; in data set [8], -1.28%; in [9], 27.9%; in data set [10] it was -6.08%. The inhibition in data set [11] was 0.45%; in data set [12], -2.81%; in [13], 23.3%; in [14] it was 1.74%; in data set [16] it was 0.47%; in [17], 81%. The inhibition in [19] was 18.7%; on Histamine H3 receptor, 85.4%; in data set [20] it was 4.25%; in [21] it was 10.2%; in [22], -4.21%; in data set [23], 4.76%. The inhibition was 22.8% in data set [24] and 44.9% in data set [26]. Moreover, the residual activity in data set [5] was 101%; in [7], 85%; in [18], 106%; in data set [25], 102%. Further, the Ki at D(1B) dopamine receptor (read-out: Ki) and at D(1B) dopamine receptor (read-out: pKi (converted)) was 4.07 µM in each case. For the same compound, in data set [15], the activity at 10 µM is on record as 89% (not active).

As usually defined, the inhibition is the relative decrease from the control value, in per cent.
